In patent US12240844B2 (Voronoi, Inc., priority 2019, dated 2025):

Columns and labels:
Assay in all cases: scanMAX Kinase panel (DiscoverX), % control
Assay type in all cases: binding
Details in all cases: <35% = active
ALK (C1156Y) = biological target: T1, ALK (C1156Y) (Homo sapiens, UniProt Q9UM73, C1156Y)
T1 construct: purchased DiscoverX
Procedure, shortened: (§1)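 Kinase selectivity profiled on the scanMAX panel with compound at 1 uM in DMSO. % control was computed relative to DMSO as negative control (100%) and a positive control compound (0%); values below 35% were counted as activity against that kinase.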

GAK = biological target: T2, GAK (Homo sapiens, UniProt O14976)
T2 construct: purchased DiscoverX
T2 sequence (O14976 1-1311): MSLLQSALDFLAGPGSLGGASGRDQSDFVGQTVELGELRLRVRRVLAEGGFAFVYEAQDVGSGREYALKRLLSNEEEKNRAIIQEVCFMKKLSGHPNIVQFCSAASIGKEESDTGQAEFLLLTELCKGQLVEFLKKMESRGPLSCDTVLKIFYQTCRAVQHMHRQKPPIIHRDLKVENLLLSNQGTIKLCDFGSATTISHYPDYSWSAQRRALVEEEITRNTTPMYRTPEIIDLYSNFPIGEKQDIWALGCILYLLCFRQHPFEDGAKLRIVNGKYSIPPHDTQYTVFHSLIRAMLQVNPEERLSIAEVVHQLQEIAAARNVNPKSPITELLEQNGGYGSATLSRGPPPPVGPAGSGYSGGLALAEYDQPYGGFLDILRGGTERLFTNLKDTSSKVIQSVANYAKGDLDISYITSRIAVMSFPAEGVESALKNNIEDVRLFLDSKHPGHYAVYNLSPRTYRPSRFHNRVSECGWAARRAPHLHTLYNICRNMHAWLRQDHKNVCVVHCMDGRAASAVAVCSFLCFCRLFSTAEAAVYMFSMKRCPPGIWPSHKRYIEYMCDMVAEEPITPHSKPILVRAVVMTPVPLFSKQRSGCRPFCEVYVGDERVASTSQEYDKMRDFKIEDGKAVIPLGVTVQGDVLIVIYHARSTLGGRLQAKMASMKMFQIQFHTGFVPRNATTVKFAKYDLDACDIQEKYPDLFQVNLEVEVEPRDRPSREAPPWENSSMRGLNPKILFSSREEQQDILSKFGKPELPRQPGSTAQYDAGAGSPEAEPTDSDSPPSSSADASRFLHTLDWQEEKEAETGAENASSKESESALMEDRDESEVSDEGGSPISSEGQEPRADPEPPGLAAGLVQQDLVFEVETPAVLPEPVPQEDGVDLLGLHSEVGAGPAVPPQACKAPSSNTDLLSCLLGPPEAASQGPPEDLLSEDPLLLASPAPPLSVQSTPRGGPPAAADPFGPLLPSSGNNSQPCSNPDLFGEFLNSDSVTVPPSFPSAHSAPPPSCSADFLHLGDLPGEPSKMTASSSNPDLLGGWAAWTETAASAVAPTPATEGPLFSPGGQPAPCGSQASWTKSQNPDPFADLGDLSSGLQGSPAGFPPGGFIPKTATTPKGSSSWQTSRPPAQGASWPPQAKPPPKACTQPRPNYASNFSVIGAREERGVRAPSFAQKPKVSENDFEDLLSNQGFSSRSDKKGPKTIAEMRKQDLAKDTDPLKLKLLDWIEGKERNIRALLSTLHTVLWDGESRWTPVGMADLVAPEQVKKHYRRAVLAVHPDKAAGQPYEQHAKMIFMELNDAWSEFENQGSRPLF
Procedure, shortened: as §1

DYRK2 = biological target: T3, DYRK2 (Homo sapiens, UniProt Q92630)
T3 construct: purchased DiscoverX
T3 sequence (Q92630 1-601): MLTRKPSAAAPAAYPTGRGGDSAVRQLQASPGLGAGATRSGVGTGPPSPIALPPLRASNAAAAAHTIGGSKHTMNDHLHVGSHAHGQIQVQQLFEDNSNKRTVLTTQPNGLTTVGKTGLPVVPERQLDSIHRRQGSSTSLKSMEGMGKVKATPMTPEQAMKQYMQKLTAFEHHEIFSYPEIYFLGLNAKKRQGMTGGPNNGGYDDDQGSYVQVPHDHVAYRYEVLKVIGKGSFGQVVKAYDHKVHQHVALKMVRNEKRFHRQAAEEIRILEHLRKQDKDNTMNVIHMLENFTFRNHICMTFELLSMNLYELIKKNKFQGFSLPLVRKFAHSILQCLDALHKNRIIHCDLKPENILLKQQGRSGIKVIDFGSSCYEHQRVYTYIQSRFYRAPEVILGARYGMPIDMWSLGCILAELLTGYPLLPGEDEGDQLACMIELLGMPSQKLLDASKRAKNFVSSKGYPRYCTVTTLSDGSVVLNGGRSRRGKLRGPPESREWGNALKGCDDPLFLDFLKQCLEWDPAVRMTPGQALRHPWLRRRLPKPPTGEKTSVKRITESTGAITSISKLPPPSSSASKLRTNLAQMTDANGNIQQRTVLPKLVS
Procedure, shortened: as §1

DYRK1B = biological target: T4, DYRK1B (Homo sapiens, UniProt Q9Y463)
T4 construct: purchased DiscoverX
Procedure, shortened: as §1

CLK4 = biological target: T5, CLK4 (Homo sapiens, UniProt Q9HAZ1)
T5 construct: purchased DiscoverX
Procedure, shortened: as §1

CLK2 = biological target: T6, CLK2 (Homo sapiens, UniProt P49760)
T6 construct: purchased DiscoverX
Procedure, shortened: as §1

MYLK = biological target: T7, MYLK (Homo sapiens, UniProt Q15746)
T7 construct: purchased DiscoverX
Procedure, shortened: as §1

ALK (L1196M) = biological target: T8, ALK (L1196M) (Homo sapiens, UniProt Q9UM73, L1196M)
T8 construct: purchased DiscoverX
Procedure, shortened: as §1

ALK = biological target: T9, ALK (Homo sapiens, UniProt Q9UM73)
T9 construct: purchased DiscoverX
Procedure, shortened: as §1

CLK3 = biological target: T10, CLK3 (Homo sapiens, UniProt P49761)
T10 construct: purchased DiscoverX
Procedure, shortened: as §1

CLK1 = biological target: T11, CLK1 (Homo sapiens, UniProt P49759)
T11 construct: purchased DiscoverX
Procedure, shortened: as §1

T6 sequence (P49760 whole entry): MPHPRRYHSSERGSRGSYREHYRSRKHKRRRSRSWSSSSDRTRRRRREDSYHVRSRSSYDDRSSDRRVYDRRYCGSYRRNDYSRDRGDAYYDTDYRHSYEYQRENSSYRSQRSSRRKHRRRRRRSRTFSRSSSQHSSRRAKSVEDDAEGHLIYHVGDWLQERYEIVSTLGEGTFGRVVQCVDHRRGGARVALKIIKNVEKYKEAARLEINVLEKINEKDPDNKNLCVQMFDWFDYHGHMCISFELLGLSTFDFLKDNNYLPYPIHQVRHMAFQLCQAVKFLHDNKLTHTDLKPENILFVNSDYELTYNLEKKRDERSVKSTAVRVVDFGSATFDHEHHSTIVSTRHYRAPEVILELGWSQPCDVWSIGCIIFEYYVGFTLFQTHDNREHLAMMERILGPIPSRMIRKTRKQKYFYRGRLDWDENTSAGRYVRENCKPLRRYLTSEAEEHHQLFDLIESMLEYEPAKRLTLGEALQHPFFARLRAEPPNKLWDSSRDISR
T9 sequence (Q9UM73 19-1620): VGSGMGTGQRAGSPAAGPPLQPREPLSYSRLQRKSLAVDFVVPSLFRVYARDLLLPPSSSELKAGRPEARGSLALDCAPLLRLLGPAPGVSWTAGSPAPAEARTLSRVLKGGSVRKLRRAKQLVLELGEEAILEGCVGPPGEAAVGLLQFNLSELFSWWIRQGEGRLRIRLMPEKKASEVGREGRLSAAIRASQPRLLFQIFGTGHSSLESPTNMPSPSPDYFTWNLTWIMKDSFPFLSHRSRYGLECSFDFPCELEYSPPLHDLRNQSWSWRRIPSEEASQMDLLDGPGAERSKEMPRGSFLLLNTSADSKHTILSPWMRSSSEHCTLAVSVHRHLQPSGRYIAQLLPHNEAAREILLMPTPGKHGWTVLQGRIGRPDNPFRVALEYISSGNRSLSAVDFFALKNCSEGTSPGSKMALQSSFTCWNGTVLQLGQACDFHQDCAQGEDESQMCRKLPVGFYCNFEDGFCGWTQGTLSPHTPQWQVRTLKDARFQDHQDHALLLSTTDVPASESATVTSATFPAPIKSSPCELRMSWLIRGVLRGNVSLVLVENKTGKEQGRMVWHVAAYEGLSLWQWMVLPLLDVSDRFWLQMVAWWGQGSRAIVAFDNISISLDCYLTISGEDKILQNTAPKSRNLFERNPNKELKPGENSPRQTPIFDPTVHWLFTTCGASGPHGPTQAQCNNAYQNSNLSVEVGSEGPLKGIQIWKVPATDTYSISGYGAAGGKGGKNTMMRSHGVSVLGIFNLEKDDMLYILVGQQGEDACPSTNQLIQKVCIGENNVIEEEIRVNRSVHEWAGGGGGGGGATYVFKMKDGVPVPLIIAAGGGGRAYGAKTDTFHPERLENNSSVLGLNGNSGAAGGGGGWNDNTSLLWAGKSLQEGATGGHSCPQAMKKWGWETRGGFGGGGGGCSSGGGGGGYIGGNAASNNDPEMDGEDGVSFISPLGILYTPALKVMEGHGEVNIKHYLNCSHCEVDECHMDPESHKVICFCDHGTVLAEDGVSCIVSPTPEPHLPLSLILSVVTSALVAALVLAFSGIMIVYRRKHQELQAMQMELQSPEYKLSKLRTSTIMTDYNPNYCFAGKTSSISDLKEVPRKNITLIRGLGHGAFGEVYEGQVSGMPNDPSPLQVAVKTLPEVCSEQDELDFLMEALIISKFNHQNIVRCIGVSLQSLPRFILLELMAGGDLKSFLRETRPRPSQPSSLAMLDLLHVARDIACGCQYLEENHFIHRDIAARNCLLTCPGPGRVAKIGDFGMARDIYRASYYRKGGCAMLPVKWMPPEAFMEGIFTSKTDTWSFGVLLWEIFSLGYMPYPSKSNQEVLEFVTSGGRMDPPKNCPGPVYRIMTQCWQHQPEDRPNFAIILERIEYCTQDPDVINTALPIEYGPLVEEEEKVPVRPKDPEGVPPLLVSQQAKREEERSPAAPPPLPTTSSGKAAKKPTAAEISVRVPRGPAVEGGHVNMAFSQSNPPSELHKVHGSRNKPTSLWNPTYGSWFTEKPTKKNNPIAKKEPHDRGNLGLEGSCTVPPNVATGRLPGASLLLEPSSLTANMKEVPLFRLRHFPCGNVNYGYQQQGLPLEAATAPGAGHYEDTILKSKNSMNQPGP
T4 sequence (Q9Y463 whole entry): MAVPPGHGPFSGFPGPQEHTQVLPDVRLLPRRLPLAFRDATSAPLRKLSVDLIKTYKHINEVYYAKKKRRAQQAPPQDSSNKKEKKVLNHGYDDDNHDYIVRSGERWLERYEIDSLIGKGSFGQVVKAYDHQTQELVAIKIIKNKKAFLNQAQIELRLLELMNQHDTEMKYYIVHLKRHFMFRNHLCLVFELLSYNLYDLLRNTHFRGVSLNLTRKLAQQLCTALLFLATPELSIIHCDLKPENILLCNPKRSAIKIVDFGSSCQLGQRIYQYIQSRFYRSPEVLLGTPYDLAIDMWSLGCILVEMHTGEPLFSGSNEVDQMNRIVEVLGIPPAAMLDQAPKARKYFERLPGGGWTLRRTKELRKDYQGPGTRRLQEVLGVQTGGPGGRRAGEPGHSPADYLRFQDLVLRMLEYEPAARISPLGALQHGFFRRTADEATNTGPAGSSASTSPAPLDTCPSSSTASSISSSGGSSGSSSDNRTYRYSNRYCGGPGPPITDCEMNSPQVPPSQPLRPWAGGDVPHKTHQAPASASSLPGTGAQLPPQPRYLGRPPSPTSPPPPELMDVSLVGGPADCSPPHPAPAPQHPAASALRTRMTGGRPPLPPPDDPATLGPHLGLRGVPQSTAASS
T10 sequence (P49761 whole entry): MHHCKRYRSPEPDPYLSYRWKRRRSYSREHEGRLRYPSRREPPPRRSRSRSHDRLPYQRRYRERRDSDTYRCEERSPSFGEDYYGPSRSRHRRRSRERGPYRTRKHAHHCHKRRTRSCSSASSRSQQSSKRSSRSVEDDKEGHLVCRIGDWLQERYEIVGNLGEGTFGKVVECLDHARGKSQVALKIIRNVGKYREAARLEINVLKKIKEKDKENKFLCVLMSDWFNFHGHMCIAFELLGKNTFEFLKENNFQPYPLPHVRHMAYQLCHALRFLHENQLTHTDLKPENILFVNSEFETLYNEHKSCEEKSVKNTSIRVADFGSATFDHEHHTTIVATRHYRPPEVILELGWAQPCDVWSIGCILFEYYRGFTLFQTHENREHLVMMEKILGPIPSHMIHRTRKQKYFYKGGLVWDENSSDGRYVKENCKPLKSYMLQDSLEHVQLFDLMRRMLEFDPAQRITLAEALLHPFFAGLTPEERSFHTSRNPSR
T8 sequence (Q9UM73 19-1620 L1196M): as the sequence (Q9UM73 19-1620) above, with L1178M counted along it
T11 sequence (P49759 whole entry): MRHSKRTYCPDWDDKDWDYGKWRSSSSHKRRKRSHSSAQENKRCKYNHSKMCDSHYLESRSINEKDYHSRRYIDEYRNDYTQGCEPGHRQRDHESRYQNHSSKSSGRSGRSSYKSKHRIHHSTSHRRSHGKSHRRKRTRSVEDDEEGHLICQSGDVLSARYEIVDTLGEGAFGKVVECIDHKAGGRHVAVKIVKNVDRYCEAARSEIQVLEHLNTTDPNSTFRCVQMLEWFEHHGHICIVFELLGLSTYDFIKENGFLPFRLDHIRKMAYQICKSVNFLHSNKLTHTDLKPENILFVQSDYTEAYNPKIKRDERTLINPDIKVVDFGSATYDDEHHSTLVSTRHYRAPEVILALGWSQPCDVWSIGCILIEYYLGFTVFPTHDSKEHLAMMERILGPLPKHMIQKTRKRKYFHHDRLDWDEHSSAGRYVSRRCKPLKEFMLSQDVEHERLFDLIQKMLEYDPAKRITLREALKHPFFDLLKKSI
T5 sequence (Q9HAZ1 whole entry): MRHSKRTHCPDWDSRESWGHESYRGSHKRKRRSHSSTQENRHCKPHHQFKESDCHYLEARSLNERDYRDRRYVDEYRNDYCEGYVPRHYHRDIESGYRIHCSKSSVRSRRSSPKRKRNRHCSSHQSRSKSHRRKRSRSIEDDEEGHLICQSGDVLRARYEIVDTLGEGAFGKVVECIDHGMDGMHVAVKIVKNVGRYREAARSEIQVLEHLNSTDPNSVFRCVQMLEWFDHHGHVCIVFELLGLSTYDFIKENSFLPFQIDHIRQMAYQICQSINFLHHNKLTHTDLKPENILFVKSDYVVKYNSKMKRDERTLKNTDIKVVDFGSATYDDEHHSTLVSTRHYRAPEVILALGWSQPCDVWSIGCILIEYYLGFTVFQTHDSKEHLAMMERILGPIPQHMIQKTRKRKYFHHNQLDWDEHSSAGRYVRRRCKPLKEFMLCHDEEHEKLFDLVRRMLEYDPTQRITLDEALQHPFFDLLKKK
T1 sequence (Q9UM73 19-1620 C1156Y): as the sequence (Q9UM73 19-1620) above, with C1138Y counted along it

remaining binding at 1 µM (ALK (C1156Y))	remaining binding at 1 µM (GAK)	remaining binding at 1 µM (DYRK2)	remaining binding at 1 µM (DYRK1B)	remaining binding at 1 µM (CLK4)	remaining binding at 1 µM (CLK2)	remaining binding at 1 µM (MYLK)	remaining binding at 1 µM (ALK (L1196M))	remaining binding at 1 µM (ALK)	remaining binding at 1 µM (CLK3)	remaining binding at 1 µM (CLK1)	Structure (SMILES)
3.9%	9.9%	9.7%	1.4%	8.2%	0.55%	1.8%	18%	3.8%	19%	2.4%	CNc1cc(Nc2ccc(C(=O)N3CC[C@H](N4CCOCC4)C3)c3c2OCC3)nc2[nH]cc(C(F)(F)F)c12 [Example 217, (S)-(7-((4-(methylamino)-3-(trifluoromethyl)-1H-pyrrolo[2,3-b]pyridin-6-yl)amino)-2,3-dihydrobenzofuran-4-yl)(3-morpholinopyrrolidin-1-yl)methanone]
12%	12%	18%	0.45%	0.25%	8.2%	30%	28%	17%	60%	7.5%	O=C(c1ccc(Nc2cc(C3CC3)c3c(C(F)(F)F)c[nH]c3n2)c2c1OCCO2)N1CCC(N2CCOCC2)CC1 [Example 221, (8-((4-cyclopropyl-3-(trifluoromethyl)-1H-pyrrolo[2,3-b]pyridin-6-yl)amino)-2,3-dihydrobenzo [b] [1,4]dioxin-5-yl)(4-morpholinopiperidin-1-yl)methanone]
9.7%	15%	62%	1.4%	0.55%	0%	15%	15%	14%	58%	3.6%	O=C(c1ccc(Nc2cc(C3CC3)c3c(C(F)(F)F)c[nH]c3n2)c2c1CCO2)N1CC[C@H](N2CCOCC2)C1 [Example 237, (S)-(7-((4-cyclopropyl-3-(trifluoromethyl)-1H-pyrrolo[2,3-b]pyridin-6-yl)amino)-2,3-dihydrobenzofuran-4-yl)(3-morpholinopyrrolidin-1-yl)methanone]
42%	27%	89%	0.7%	0.35%	0.25%	33%	58%	67%	56%	2.4%	O=C(c1ccc(Nc2cc(C3CC3)c3c(C(F)(F)F)c[nH]c3n2)c2c1CCO2)N1CC[C@@H](N2CCOCC2)C1 [Example 238, (R)-(7-((4-cyclopropyl-3-(trifluoromethyl)-1H-pyrrolo[2,3-b]pyridin-6-yl)amino)-2,3-dihydrobenzofuran-4-yl)(3-morpholinopyrrolidin-1-yl)methanone]
